The values that follow come from patent US20020183313A1, “1,4-benzodiazepinones and their uses as CCK antagonists” (Fujisawa Pharmaceutical Co., Ltd., priority 1996, published 2002).

Where only a bound is given, the exact number is not on record here.

Usually melting point stands for the temperature, or range, at which the solid turns liquid. `CC1=NC(NC(=O)Nc2cccc(C)c2)C(=O)N(CC(=O)C(C)(C)C)c2c(C)cccc21` (racemic) [Example 41, N-[(3RS)-2,3-Dihydro-5,9-dimethyl-1-tert-butylcarbonylmethyl-2-oxo-1H-1,4-benzodiazepin-3-yl]-N′-(3-methylphenyl)urea] gave a melting point of 179.6 to 181.2 °C.
The result for `Cc1cccc2c1N(Cc1ccccn1)C(=O)C(NC(=O)Nc1cccc(-c3nnn[nH]3)c1)N=C2c1ccccc1F` (racemic) reads 173.9 to 182 °C; that for `CC(C)C1=NC(NC(=O)NC2CCCCC2)C(=O)N(CC(=O)N2CC3CCC(CC3)C2)c2ccccc21` (racemic), 138 to 140 °C.
The result for `Cc1cccc(NC(=O)NC2N=C(c3ccccc3F)c3cccc(C(C)C)c3N(CC(=O)N3CC4CCC(CC4)C3)C2=O)c1` (racemic) reads 183.3 to 186.8 °C; that for `CC(=NO)c1cccc(NC(=O)NC2N=C(c3ccccc3F)c3cccc(C)c3N(CC(=O)N3CC4CCC(CC4)C3)C2=O)c1` (racemic), 199.1 to 207.8 °C.
For `CCC1=NC(NC(=O)Nc2cccc(C)c2)C(=O)N(CC(=O)N2CC3CCC(CC3)C2)c2c(C)cccc21` (racemic) the value was 130.1 to 133 °C.
In turn, `Cc1ccccc1C(=O)CN1C(=O)C(NC(=O)Nc2cccc(-c3nnn[nH]3)c2)N=C(C2CCCCC2)c2cccc(C)c21` (racemic) [24(1), N-[(3RS)-5-Cyclohexyl-9-methyl-2,3-dihydro-1-(2-methylphenacyl)-2-oxo-1H-1,4-benzodiazepin-3-yl]-N′-[3-(tetrazol-5-yl)phenyl]urea] had a melting point of 165 to 176.6 °C.
Turning to `Cc1cccc2c1N(CC(=O)N1CC3CCC(CC3)C1)CC(NC(=O)Nc1cccc(Br)c1)N=C2c1ccccc1F` (racemic), the melting point is greater than 250 °C.
`Cc1cccc2c1N(CC(=O)N1CC3CCC(CC3)C1)C(=O)C(NC(=O)Nc1cccc(-c3nnn[nH]3)c1)N=C2C1CCCCC1` (racemic) returned a melting point of 186.2 to 197.6 °C.
With `Cc1cccc2c1N(CC(=O)N1CC3CCC(CC3)C1)C(=O)C(NC(=O)Nc1cccc(O)c1)N=C2c1ccccc1F` (racemic), the melting point lay within 192.8 to 203.9 °C.
The result for `O=C(Nc1cccc(-c2nnn[nH]2)c1)NC1N=C(c2ccccc2F)c2cccc(Cl)c2N(CC(=O)N2CC3CCC(CC3)C2)C1=O` (racemic) reads 172 to 180.5 °C.
With `CC1=NC(NC(=O)Nc2cccc(C)c2)C(=O)N(CC(=O)NC(C)(C)C)c2c(C)cccc21` (racemic) [48-3(11), N-[(3RS)-2,3-Dihydro-5,9-dimethyl-1-(N-tert-butylamino-carbonylmethyl)-2-oxo-1H-1,4-benzodiazepin-3-yl]-N′-(3-methylphenyl)urea], the melting point is 243.4 to 244.4 °C.
For `Cc1cccc(NC(=O)NC2N=C(C=O)c3cccc(C)c3N(CC(=O)N3CCCCCCC3)C2=O)c1` (racemic) [71-3(2), N-[(3RS)-1-(azacyclooctan-1-yl)carbonylmethyl-2,3-dihydro-5-formyl-9-methyl-2-oxo-1H-1,4-benzodiazepin-3-yl]-N′-(3-methylphenyl)urea] the value was 137.9 to 141 °C; for `CSc1cccc(NC(=O)NC2N=C(C(C)C)c3ccccc3N(CC(=O)N3CC4CCC(CC4)C3)C2=O)c1` (racemic), 134 to 135 °C.
Turning to `Cc1cccc(NC(=O)NC2N=C(c3ccccc3F)c3cccc(C)c3N(CC(=O)c3ccccc3C)C2=O)c1` (racemic), the melting point fell in the range of 190.2 to 196.2 °C.
For `CC(=O)OCC1=NC(NC(=O)Nc2cccc(C)c2)C(=O)N(CC(=O)N2CC3CCC(CC3)C2)c2c(C)cccc21` (racemic) the value was 133 to 134.5 °C; for `CC(C)C1=NC(NC(=O)Nc2ccccc2)C(=O)N(CC(=O)N2CC3CCC(CC3)C2)c2ccccc21` (racemic), 132 to 135 °C.
In turn, `CCC1=NC(NC(=O)Nc2cccc(C)c2)C(=O)N(CC(=O)N2CCCCCCC2)c2c(C)cccc21` (racemic) [Example 66, N-[(3RS)-1-(Azacyclooctan-1-yl)carbonylmethyl-2,3-dihydro-5-ethyl-9-methyl-2-oxo-1H-1,4-benzodiazepin-3-yl]-N′-(3-methylphenyl)urea] showed a melting point of 189 to 189.5 °C.
`Cc1cccc(NC(=O)NC2N=C(CO)c3cccc(C)c3N(CC(=O)N3CCCCCCC3)C2=O)c1` (racemic) [Example 71-2, N-[(3RS)-1-(Azacyclooctan-1-yl)carbonylmethyl-2,3-dihydro-5-hydroxymethyl-9-methyl-2-oxo-1H-1,4-benzodiazepin-3-yl]-N′-(3-methylphenyl)urea] showed a melting point of 214.5 to 216 °C.
`Cc1cccc(NC(=O)NC2N=C(C(C)C)c3ccccc3N(CC(=O)N3CC4CCC(CC4)C3)C2=O)c1` (racemic) registered a melting point of 123 to 126 °C.
`Cc1cccc2c1N(CC(=O)c1ccccc1OCC(=O)O)C(=O)C(NC(=O)Nc1cccc(-c3nnn[nH]3)c1)N=C2c1ccccc1F` (racemic) displayed a melting point of 109.6 to 113 °C.
With `CC1=NC(NC(=O)Nc2cccc(C)c2)C(=O)N(CC(=O)N2CC3CCC(CC3)C2)c2ccccc21` (racemic), the melting point was in the range of 150 to 153 °C.
For `CC1=NC(NC(=O)Nc2cccc(N(C)C)c2)C(=O)N(CC(=O)N2CC3CCC(CC3)C2)c2c(C)cccc21.Cl` (racemic) the value was 190.9 to 193.1 °C; for `CC1=NC(NC(=O)Nc2cccc(Br)c2)C(=O)N(CC(=O)N2CC3CCC(CC3)C2)c2c(C)cccc21` (racemic), 168.1 to 171.1 °C; for `CCOC(=O)C=CC1=NC(NC(=O)Nc2cccc(C)c2)C(=O)N(CC(=O)N2CCCCCCC2)c2c(C)cccc21` (racemic) [75(1)-1, N-[(3RS)-1-(azacyclooctan-1-yl)carbonylmethyl-2,3-dihydro-5-((EZ)-2-(ethoxycarbonyl)ethenyl)-9-methyl-2-oxo-1H-1,4-benzodiazepin-3-yl]-N′-(3-methylphenyl)urea], 175.2 to 177.7 °C.
The result for `CC(=O)c1sccc1CN1C(=O)C(NC(=O)Nc2cccc(C)c2)N=C(C)c2ccccc21` (racemic) [8(3), N-[(3RS)-1-(2-acetylthiophen-3-yl)methyl-2,3-dihydro-5-methyl-2-oxo-1H-1,4-benzodiazepin-3-yl]-N′-(3-methylphenyl)urea] reads 215 to 219 °C; that for `O=C(Nc1cccc(-c2nnn[nH]2)c1)NC1N=C(CC2CCCCC2)c2ccccc2N(CC(=O)N2CC3CCC(CC3)C2)C1=O` (racemic), 218 to 222 °C (dec.).
Consider `CC1=NC(NC(=O)Nc2cccc(C)c2)C(=O)N(CC(=O)C2CCCCCC2)c2c(C)cccc21` (racemic) [Example 63, N-[(3RS)-1-Cycloheptylcarbonylmethyl-2,3-dihydro-5,9-dimethyl-2-oxo-1H-1,4-benzodiazepin-3-yl]-N′-(3-methylphenyl)urea], for which the melting point lay within 171.3 to 174.6 °C.
For `Cc1cccc2c1N(CC(=O)N1CC3CCC(CC3)C1)C(=O)C(NC(=O)Nc1cccc(C=NO)c1)N=C2c1ccccc1F` (racemic) the value was 196 to 199 °C; for `Cc1cccc2c1N(Cc1c[nH]cn1)C(=O)C(NC(=O)Nc1cccc(-c3nnn[nH]3)c1)N=C2C1CCCCC1` (racemic) [Example 49, N-[(3RS)-5-Cyclohexyl-2,3-dihydro-1-(imidazol-4-yl)methyl-9-methyl-2-oxo-1H-1,4-benzodiazepin-3-yl]-N′-[3-(tetrazol-5-yl)phenyl]urea], 168.2 to 179.2 °C; for `CC(=O)c1ccccc1CN1C(=O)C(NC(=O)Nc2cccc(-c3nnn[nH]3)c2)N=C(C2CCCCC2)c2cccc(C)c21` (racemic) [Example 51, N-[(3RS)-1-(2-acetylbenzyl)-5-cyclohexyl-2,3-dihydro-9-methyl-2-oxo-1H-1,4-benzodiazepin-3-yl]-N′-[3-(tetrazol-5-yl)phenyl]urea], 199 to 208 °C.
For `CCCCC1=NC(NC(=O)Nc2cccc(C)c2)C(=O)N(CC(=O)N2CC3CCC(CC3)C2)c2ccccc21` (racemic) the value was 121 to 123 °C.
For `CSc1cccc(NC(=O)NC2N=C(C)c3cccc(C)c3N(CC(=O)N3CC4CCC(CC4)C3)C2=O)c1` (racemic) the value was 237.2 to 238.5 °C.
Turning to `CC1=NC(NC(=O)Nc2cccc(C)c2)C(=O)N(CC(=O)N2CCC(O)(c3ccccc3)CC2)c2c(C)cccc21` (racemic) [48-3(6), N-[(3RS)-1-(4-Hydroxy-4-phenylpiperidin-1-yl)carbonylmethyl-5,9-dimethyl-2,3-dihydro-2-oxo-1H-1,4-benzodiazepin-3-yl]-N′-(3-methylphenyl)urea], the melting point fell in the range of 163.2 to 164.9 °C.
The compound `Cc1cccc(NC(=O)NC2N=C(CC(C)C)c3cccc(C)c3N(CC(=O)N3CCCCCCC3)C2=O)c1` (racemic) [Example 69, N-[(3RS)-1-(Azacyclooctan-1-yl)carbonylmethyl-2,3-dihydro-5-isobutyl-9-methyl-2-oxo-1H-1,4-benzodiazepin-3-yl]-N′-(3-methylphenyl)urea] came in with a melting point of 131.6 to 133.4 °C.
On to `CC1=NC(NC(=O)Nc2cccc(C)c2)C(=O)N(CC(=O)N2CC3CCC(CC3)C2)c2c1cccc2N(C)C.Cl` (racemic), for which the melting point is 216.5 to 218.7 °C.
Turning to `Cc1cccc2c1N(CC(=O)N1CC3CCC(CC3)C1)C(=O)C(NC(=O)Nc1cccc(C=O)c1)N=C2c1ccccc1F` (racemic), the melting point fell in the range of 236.8 to 242.1 °C.
For `Cc1cccc(NC(=O)NC2N=C(C=CC(=O)O)c3cccc(C)c3N(CC(=O)N3CCCCCCC3)C2=O)c1` (racemic) [75(1)-2, N-[(3RS)-1-(azacyclooctan-1-yl)carbonylmethyl-2,3-dihydro-5-((EZ)-2-carboxylethenyl)-9-methyl-2-oxo-1H-1,4-benzodiazepin-3-yl]-N′-(3-methylphenyl)urea] the value was 129.3 to 134.1 °C; for `CC1=NC(NC(=O)Nc2cccc(C)c2)C(=O)N(CC(=O)C2CCCC2)c2c(C)cccc21` (racemic) [Example 65, N-[(3RS)-1-Cyclopentylcarbonylmethyl-2,3-dihydro-5,9-dimethyl-2-oxo-1H-1,4-benzodiazepin-3-yl]-N′-(3-methylphenyl)urea], 150.1 to 155.5 °C.
